Source: US6962894B1, “Herbicidal composition” (Syngenta Crop Protection, Inc., priority 1999, dated 2005)

What was measured:
Assay in all cases: Post-emergence greenhouse pot test, herbicide alone and with safener
Type in all cases: in vivo
Lolium rigidum = test system: Lolium rigidum
Protocol: (§1) The test plants are grown in pots under greenhouse conditions until a post-application stage. A standard soil is used as the cultivation substrate. At a post-emergence stage, the herbicides, both alone and in admixture with safeners, are applied to the test plants or to cultivated plants of which the seeds were dressed with safeners. Application is carried out using an emulsion prepared from a 25% emulsifiable concentrate (Example F1, b)) of the test substances using 500 l of water/ha. The rates of application are matched to the optimum dosages determined under field or greenhouse conditions. Evaluation of the tests is carried out after 9, 10, 20 and 24 days (100% action=complete destruction; 0% action=no phytotoxic action).

Agrostis spica-venti = conditions: 10 days after application
Protocol: as §1

Alopecurus myosuroides = conditions: 10 days after application
Protocol: as §1

summer wheat = test system: summer wheat
Protocol: as §1

winter barley = conditions: 10 days after application
Protocol: as §1

hard wheat = test system: hard wheat
Protocol: as §1

winter wheat = conditions: 10 days after application
Protocol: as §1

[1] = 20 days after application, herbicide alone 60 g a.i./ha
[2] = 20 days after application, herbicide alone 125 g a.i./ha
[3] = 20 days after application, herbicide alone 250 g a.i./ha
[4] = 9 days after application, herbicide alone 60 g a.i./ha
[5] = 9 days after application, herbicide alone 125 g a.i./ha
[6] = 9 days after application, herbicide alone 250 g a.i./ha

Structure (SMILES): CCc1cc(C)cc(CC)c1C1C(=O)N2CCOCCN2C1=O [herbicide no. I1, 8-(2,6-diethyl-4-methylphenyl)tetrahydropyrazolo[1,2-d][1,4,5]-oxadiazepine-7,9-dione]
- action (100% = complete destruction; 0% = no phytotoxic action) (Lolium rigidum; 10 days after application, herbicide alone 15 g a.i./ha): 60%
- action (100% = complete destruction; 0% = no phytotoxic action) (Lolium rigidum; 10 days after application, herbicide alone 30 g a.i./ha): 60%
- action (100% = complete destruction; 0% = no phytotoxic action) (Lolium rigidum; 10 days after application, herbicide alone 60 g a.i./ha): 60%
- action (100% = complete destruction; 0% = no phytotoxic action) (Lolium rigidum; 10 days after application, herbicide alone 125 g a.i./ha): 80%
- action (100% = complete destruction; 0% = no phytotoxic action) (Lolium rigidum; [1]): 95%
- action (100% = complete destruction; 0% = no phytotoxic action) (Lolium rigidum; [2]): 100%
- action (100% = complete destruction; 0% = no phytotoxic action) (Lolium rigidum; [3]): 100%
- action (100% = complete destruction; 0% = no phytotoxic action) (Agrostis spica-venti; herbicide alone 15 g a.i./ha): 70%
- action (100% = complete destruction; 0% = no phytotoxic action) (Agrostis spica-venti; herbicide alone 30 g a.i./ha): 70%
- action (100% = complete destruction; 0% = no phytotoxic action) (Agrostis spica-venti; herbicide alone 60 g a.i./ha): 80%
- action (100% = complete destruction; 0% = no phytotoxic action) (Agrostis spica-venti; herbicide alone 125 g a.i./ha): 80%
- action (100% = complete destruction; 0% = no phytotoxic action) (Alopecurus myosuroides; herbicide alone 15 g a.i./ha): 50%
- action (100% = complete destruction; 0% = no phytotoxic action) (Alopecurus myosuroides; herbicide alone 30 g a.i./ha): 80%
- action (100% = complete destruction; 0% = no phytotoxic action) (Alopecurus myosuroides; herbicide alone 60 g a.i./ha): 80%
- action (100% = complete destruction; 0% = no phytotoxic action) (Alopecurus myosuroides; herbicide alone 125 g a.i./ha): 90%
- action (100% = complete destruction; 0% = no phytotoxic action) (summer wheat; [4]): 60%
- action (100% = complete destruction; 0% = no phytotoxic action) (summer wheat; [5]): 60%
- action (100% = complete destruction; 0% = no phytotoxic action) (summer wheat; [6]): 60%
- action (100% = complete destruction; 0% = no phytotoxic action) (summer wheat; [1]): 20%
- action (100% = complete destruction; 0% = no phytotoxic action) (summer wheat; [2]): 40%
- action (100% = complete destruction; 0% = no phytotoxic action) (summer wheat; [3]): 50%
- action (100% = complete destruction; 0% = no phytotoxic action) (winter barley; herbicide alone 15 g a.i./ha): 0%
- action (100% = complete destruction; 0% = no phytotoxic action) (winter barley; herbicide alone 30 g a.i./ha): 0%
- action (100% = complete destruction; 0% = no phytotoxic action) (winter barley; herbicide alone 60 g a.i./ha): 0%
- action (100% = complete destruction; 0% = no phytotoxic action) (winter barley; herbicide alone 125 g a.i./ha): 0%
- action (100% = complete destruction; 0% = no phytotoxic action) (hard wheat; [4]): 55%
- action (100% = complete destruction; 0% = no phytotoxic action) (hard wheat; [5]): 60%
- action (100% = complete destruction; 0% = no phytotoxic action) (hard wheat; [6]): 60%
- action (100% = complete destruction; 0% = no phytotoxic action) (hard wheat; [1]): 20%
- action (100% = complete destruction; 0% = no phytotoxic action) (hard wheat; [2]): 30%
- action (100% = complete destruction; 0% = no phytotoxic action) (hard wheat; [3]): 45%
- action (100% = complete destruction; 0% = no phytotoxic action) (winter wheat; herbicide alone 15 g a.i./ha): 0%
- action (100% = complete destruction; 0% = no phytotoxic action) (winter wheat; herbicide alone 30 g a.i./ha): 5%
- action (100% = complete destruction; 0% = no phytotoxic action) (winter wheat; herbicide alone 60 g a.i./ha): 10%
- action (100% = complete destruction; 0% = no phytotoxic action) (winter wheat; herbicide alone 125 g a.i./ha): 20%
